We go through one compound from ChEMBL document CHEMBL1148077, “Stellettin A, a new triterpenoid pigment from the marine sponge Stelletta tenuis” (1994).

Converted amounts (≈) assume the structure as drawn.

For the assay, the system named is P388. The assay can be described thus: Cytotoxicity against mouse P388 cells. The class given is functional. The conditions noted are these: read-out: ED50 (the source's name).

`C\C(=C/C=C/C(C)=C1/C(=O)C[C@H]2[C@@]3(C)CCC(=O)C(C)(C)[C@@H]3CC[C@]12C)c1ccc(C)c(=O)o1` [STELLETIN A]: the EC50 came out at 1 ng/mL (≈ 2.16 nM).
